Activity calls are given as the source filed them. How the calls were made is not given here.

The first assay has as its system T. cruzi-infected H9C2 cardiomyocytes, high-content imaging. The experiment in a line: intracellular T. cruzi amastigote inhibition, imaging, H9C2 host cardiomyocytes, host toxicity (AID 1159565).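 Further: infected cells incubated 72 h after plating.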
Details: not given
As usually defined, the IC50 is the point on the concentration scale where inhibition reaches its midpoint. In the case of `Cc1c(C(C)NC(=O)Nc2cccc(Cl)c2)sc2ncnn12` (stereo not given), the concentration for half-maximal inhibition (IC50) is 200 nM.

As to `Cc1cccc(NS(=O)(=O)c2cnc3sc(C)cn3c2=O)c1`, the IC50 was 2000 nM.

With `O=C(Nc1nc2cc(Cl)ccc2o1)c1cccc(Cl)c1`, the IC50 was 790 nM.

For `CC(C)c1sc(Cl)nc1C(=O)NCCc1nc(C(=O)Nc2ccc3c(c2)OCO3)cs1`, the IC50 is 1000 nM.

On to `Cc1ccc(Nc2nc(C3CCCN3Cc3ccn[nH]3)cs2)nc1` (stereo not given), for which the IC50 was 2000 nM.

Regarding `CC(c1ccccn1)N(C)Cc1nc2ccccc2n1C(C)C` (stereo not given), the concentration for half-maximal inhibition (IC50) is 6300 nM.

As to `Clc1ccc(OCCN2CCCCC2c2cccnc2)c(Cl)c1` (stereo not given), the half-maximal inhibitory concentration (IC50) is 200 nM.

On to `COCCn1c(-c2ccc3c(c2)OCO3)cnc1NCc1ccccc1OC`, for which the concentration for half-maximal inhibition (IC50) is 20000 nM.

Take `CCCCc1cc(Nc2cc(C3CCC3)[nH]n2)nc(N2CCC2C(N)=O)n1` (stereo not given): the IC50 was 3200 nM.

As to `COc1ccccc1C1CC(c2ccc(NS(C)(=O)=O)cc2)=NN1C(=O)c1cccs1` (stereo not given), the IC50 is > 50000 nM (inactive).

For `c1ccc2c(CCOc3nccnc3-c3ccncc3)c[nH]c2c1`, the IC50 was 160 nM.

Consider `COc1ccc(C(C)N(C)c2ncc3c(N)nc(N)nc3n2)cc1F` (stereo not given), for which the IC50 was 200 nM.

For `CC(Cn1ccnc1)NC(=O)COc1ccc(Cl)c(Cl)c1` (stereo not given), the IC50 was 500 nM.

Consider `CCc1ccc2nc(NC(=O)c3cc(N4CCOCC4)ccn3)sc2c1`, for which the IC50 was 790 nM.

With `CCOc1ccc(Nc2ccc(S(=O)(=O)N3CCN(C)CC3)cc2[N+](=O)[O-])cc1OCC`, the IC50 was > 50000 nM (inactive).

Take `Cc1cccc(Nc2nc(-c3ccccn3)cs2)n1`: the IC50 was 1000 nM.

For the compound `Nc1nc(-c2ccccn2)nc(N)c1Cc1c(F)cccc1Cl`, the IC50 is 2000 nM.

As for `O=C(Nc1nc2ccccc2[nH]1)c1c(O)c2cccc3c2n(c1=O)CC3`, the IC50 is 16000 nM.

For the compound `O=c1[nH]ccc2ccc(-c3ccncc3)cc12`, the IC50 is 250 nM.

For `CC(Cn1ccnc1)NC(=O)C=Cc1ccc(Cl)cc1` (stereo not given), the IC50 is 1000 nM.

As to `OC1CCC(Nc2nccc(-c3sc(C4CCOCC4)nc3-c3ccc(F)c(F)c3)n2)CC1` (stereo not given), the IC50 was 320 nM.

For `CC(Cn1ccnc1)NC(=O)C1CC1c1cccc(Cl)c1Cl` (stereo not given), the IC50 is 250 nM.

With `CCCn1c(NC(=O)CCn2cc(Br)cn2)nc2ccccc21`, the IC50 is 6300 nM.

Take `NCc1csc(Nc2cc(Oc3ccccc3)ncn2)n1`: the IC50 is 25000 nM.

Turning to `FC(F)(F)c1cc(C2CCCN(Cc3c[nH]c4ccccc34)C2)nc2ncnn12` (stereo not given), the IC50 was 10000 nM.

For `COCc1cnc2c(c1SCc1c(F)cccc1Cl)c(=O)n(C)c(=O)n2C`, the IC50 is 4000 nM.

Take `CN(Cc1cccnc1)Cc1ccc(N2CCN(C(=O)C3(c4ccc(Cl)cc4)CC3)CC2)nc1`: the 50% inhibitory concentration (IC50) is 1600 nM.

Take `CCOc1cnn(C)c(=O)c1Nc1ccc(C(=O)NCc2ccc(F)cc2)cc1`: the IC50 was 100 nM.

Regarding `O=C(CN(Cc1ccccn1)Cc1ccccn1)NC1Cc2ccccc2C1`, the IC50 was 13000 nM.

Take `COc1ccc(C2CC(c3ccccc3Cl)=NN2C(=O)CNC(=O)C2CCC2)cc1` (stereo not given): the IC50 was 1600 nM.

`Cc1ccc(C)c(-n2nnnc2Sc2nc([N+](=O)[O-])nn2C)c1`: the IC50 was 790 nM.

Consider `c1ccc(-c2nc(NC3CCCC3)c3ccccc3n2)nc1`, for which the IC50 was 790 nM.

With `O=C(NCC1CCCCC1)c1cnns1`, the IC50 is 3200 nM.

With `COc1ncc(-c2ccc3ncnc(N4CCOCC4)c3c2)cc1NS(C)(=O)=O`, the IC50 is 6300 nM.

Regarding `Cc1ccc(S(C)(=O)=O)cc1Nc1nccc(-c2sc(N)nc2-c2ccccc2)n1`, the half-maximal inhibitory concentration (IC50) is 130 nM.

For `COc1ccc(C(C)(C)C)cc1S(=O)(=O)n1ccnc1`, the IC50 was 200 nM.

With `CCCN1CCN(Cc2ccc(S(=O)(=O)Nc3cccc(C)c3)cc2)CC1`, the IC50 is 790 nM.

On to `Cn1ccnc1-c1nc(NCc2ccccc2Cl)cc(C2CC2)n1`, for which the IC50 is 790 nM.

`CC(C)c1cc(Nc2cc(Cc3ccccc3)nc(NC3CCC(O)CC3)n2)n[nH]1` (stereo not given): the IC50 is 79 nM.

In the case of `COCc1cc(Nc2ccccc2)nc(-c2ccccn2)n1`, the IC50 is 25000 nM.

Turning to `CCOc1ccc(NC(=O)C=Cc2ccc(CC)o2)cc1`, the IC50 was 25000 nM.

As to `COc1cc(Nc2nccc(Nc3onc(C)c3C)n2)cc(S(=O)(=O)C2CCOCC2)c1`, the concentration for half-maximal inhibition (IC50) is 25000 nM.

As for `COC(=O)c1ccc(-c2cnc3ccc(NCc4ccccn4)nn23)cc1`, the IC50 was 7900 nM.

Take `CCCN(Cc1ccc(OC)c(OC)c1)Cc1cc(=O)c2c(C)cc(C)cc2[nH]1`: the IC50 is 2000 nM.

On to `Cc1nc(N2CCC(C(=O)N3CCC(O)(c4cccnc4)CC3)CC2)nc2ccc(C(C)C)cc12`, for which the IC50 was 320 nM.

Take `CNC(=O)C1Cc2ccccc2N1C(=O)COc1cccc(OC)c1` (stereo not given): the IC50 was > 50000 nM (inactive).

In the case of `Cc1ccccc1NS(=O)(=O)c1ccc2[nH]cc(C(=O)NC3CCCCC3)c(=O)c2c1`, the IC50 is 16000 nM.

Take `O=C(N1CCc2ccccc2CC1)C1(C(=O)N2CCC(n3c(=O)[nH]c4ncccc43)CC2)CC1`: the IC50 is 790 nM.

Regarding `O=C(c1cccc(Nc2ncc(-c3ccc4c(c3)OCO4)cn2)c1)N1CCOCC1`, the IC50 is 1300 nM.

On to `COc1ccc(-c2nc3ccncc3c(=O)n2CCOc2ccccc2)cc1`, for which the IC50 was 400 nM.

Turning to `Cc1nc2c(-c3n[nH]c(-c4ccccc4N)n3)cccn2c1C`, the concentration for half-maximal inhibition (IC50) was 2500 nM.

With `N#Cc1c(Oc2cccc(Cl)c2)cccc1[N+](=O)[O-]`, the IC50 is 630 nM.

Consider `Cc1nn(C2CCS(=O)(=O)C2)c(C)c1CN(C)C(=O)C=Cc1sc2ccccc2c1Cl` (stereo not given), for which the IC50 was 500 nM.

Regarding `Cc1nc(C(=O)Nc2ccc3c(c2)OCO3)nn1-c1ccc(F)cc1`, the IC50 was 1300 nM.

With `Cn1nc(C(=O)N2CCc3ccccc32)c2c1CCS(=O)(=O)C2`, the half-maximal inhibitory concentration (IC50) is 13000 nM.

For the compound `CCc1cccc(CC)c1-n1c(SCC(=O)NC(=O)NCc2ccco2)nnc1-c1cccnc1`, the IC50 is 13000 nM.

On to `NS(=O)(=O)c1ccc(CNC(=O)c2ccc([N+](=O)[O-])s2)cc1`, for which the IC50 was 5000 nM.

Still in this assay, the particulars now being: measured here: H9C2 host cell toxicity.
In turn, `Cc1c(C(C)NC(=O)Nc2cccc(Cl)c2)sc2ncnn12` (stereo not given) gave an IC50 of over 50000 nM.

In turn, `Cc1cccc(NS(=O)(=O)c2cnc3sc(C)cn3c2=O)c1` registered a half-inhibitory concentration (IC50) of 6300 nM.

In turn, `O=C(Nc1nc2cc(Cl)ccc2o1)c1cccc(Cl)c1` returned a concentration for half-maximal inhibition (IC50) of 2500 nM.

`CC(C)c1sc(Cl)nc1C(=O)NCCc1nc(C(=O)Nc2ccc3c(c2)OCO3)cs1` showed an IC50 of over 50000 nM.

`Cc1ccc(Nc2nc(C3CCCN3Cc3ccn[nH]3)cs2)nc1` (stereo not given) showed an IC50 of 10000 nM.

As for `CC(c1ccccn1)N(C)Cc1nc2ccccc2n1C(C)C` (stereo not given), the IC50 is over 50000 nM.

Compound `Clc1ccc(OCCN2CCCCC2c2cccnc2)c(Cl)c1` (stereo not given) showed a 50% inhibitory concentration (IC50) of over 50000 nM.

As to `COCCn1c(-c2ccc3c(c2)OCO3)cnc1NCc1ccccc1OC`, the IC50 came to 40000 nM.

Compound `CCCCc1cc(Nc2cc(C3CCC3)[nH]n2)nc(N2CCC2C(N)=O)n1` (stereo not given) registered an IC50 of 790 nM.

The compound `COc1ccccc1C1CC(c2ccc(NS(C)(=O)=O)cc2)=NN1C(=O)c1cccs1` (stereo not given) had an IC50 of over 50000 nM.

Consider `c1ccc2c(CCOc3nccnc3-c3ccncc3)c[nH]c2c1`, for which the half-inhibitory concentration (IC50) is over 50000 nM.

For `COc1ccc(C(C)N(C)c2ncc3c(N)nc(N)nc3n2)cc1F` (stereo not given), the IC50 came to 25000 nM.

In the case of `CC(Cn1ccnc1)NC(=O)COc1ccc(Cl)c(Cl)c1` (stereo not given), the IC50 is over 50000 nM.

The compound `CCc1ccc2nc(NC(=O)c3cc(N4CCOCC4)ccn3)sc2c1` registered an IC50 of 40000 nM.

The compound `CCOc1ccc(Nc2ccc(S(=O)(=O)N3CCN(C)CC3)cc2[N+](=O)[O-])cc1OCC` displayed a half-inhibitory concentration (IC50) of over 50000 nM.

`Cc1cccc(Nc2nc(-c3ccccn3)cs2)n1` came in with an IC50 of 630 nM.

For the compound `Nc1nc(-c2ccccn2)nc(N)c1Cc1c(F)cccc1Cl`, the 50% inhibitory concentration (IC50) worked out at 1300 nM.

In turn, `O=C(Nc1nc2ccccc2[nH]1)c1c(O)c2cccc3c2n(c1=O)CC3` yielded an IC50 of 10000 nM.

Turning to `O=c1[nH]ccc2ccc(-c3ccncc3)cc12`, the IC50 was over 50000 nM.

With `CC(Cn1ccnc1)NC(=O)C=Cc1ccc(Cl)cc1` (stereo not given), the half-maximal inhibitory concentration (IC50) is over 50000 nM.

Compound `OC1CCC(Nc2nccc(-c3sc(C4CCOCC4)nc3-c3ccc(F)c(F)c3)n2)CC1` (stereo not given) displayed a 50% inhibitory concentration (IC50) of 32000 nM.

`CC(Cn1ccnc1)NC(=O)C1CC1c1cccc(Cl)c1Cl` (stereo not given): the IC50 is over 50000 nM.

Regarding `CCCn1c(NC(=O)CCn2cc(Br)cn2)nc2ccccc21`, the IC50 was 25000 nM.

In the case of `NCc1csc(Nc2cc(Oc3ccccc3)ncn2)n1`, the IC50 is over 50000 nM.

For the compound `FC(F)(F)c1cc(C2CCCN(Cc3c[nH]c4ccccc34)C2)nc2ncnn12` (stereo not given), the IC50 was over 50000 nM.

On to `COCc1cnc2c(c1SCc1c(F)cccc1Cl)c(=O)n(C)c(=O)n2C`, for which the concentration for half-maximal inhibition (IC50) was over 50000 nM.

`CN(Cc1cccnc1)Cc1ccc(N2CCN(C(=O)C3(c4ccc(Cl)cc4)CC3)CC2)nc1`: the IC50 was over 50000 nM.

`CCOc1cnn(C)c(=O)c1Nc1ccc(C(=O)NCc2ccc(F)cc2)cc1` showed an IC50 of over 50000 nM.

The record behind these values is PubChem BioAssay AID1159565 (GlaxoSmithKline (GSK), 2015).
